The values below come from patent publication US20120164148A1, “Compositions Containing JARID1B Inhibitors and Methods for Treating Cancer” (The Wistar Institute, priority 2009, published 2012).

Data set [1] relates to JARID1B. In words: Validation of JARID1B shRNA knockdown clones (RNA, protein, BrdU, MTS, cell counts). In kind it is cell-based, human. The conditions noted are these: out of five shRNA clones. From the text:
Melanoma Samples and Cell Culture. Fresh human melanoma tissues and cells were obtained according to standard procedures, isolated and maintained in 2% fetal bovine serum (FBS)-substituted melanoma medium (‘Tu2%’) Smalley, et al. (2005) Am. J. Pathol. 166:1541-1554; Satyamoorthy, et al. (1997) Melanoma Res. 7 Suppl 2:S35-42). According to the isolation of neural stem cells and cancer stem cells from brain tumors by culturing of neurospheres (Yuan, et al. (2004) Oncogene 23:9392-9400; Galli, et al. (2004) Cancer Res. 64:7011-7021), melanoma spheres were propagated in mouse embryonic fibroblast (MEF)-conditioned human embryonic stem cell medium (hESCM) according to conventional methods (Fang, et al. (2005) supra). Before use, MEF-conditioned hESCM was mixed with fresh hESCM medium at a 7:3 ratio (‘hESCM4’) and basic fibroblast growth factor was added at 4 ng/ml. Depending on the cell line, sphere formation could be observed 2-6 weeks after starting culture in hESCM4. Spheres were dissociated by collagenase I/IV (Sigma, St. Louis, Mo.) and mechanical treatment, i.e., 200-250 units per ml DMEM (Cellgro) at 37° C. for 10 minutes plus subsequent pipetting. […]
Given the paradox of an increased in vitro self-renewal capacity without any effect on in vivo tumor initiation, it was determined whether JARID1B still could be important for the continuous maintenance of melanomas. […]

In data set [2] the test system is WM3734^JARID1Bprom-EGFP cells. In words: Drug treatment of WM3734 JARID1Bprom-EGFP cells, flow cytometry of J/EGFP+ subpopulation and viable cells. In kind it is cell-based, human. The conditions noted are these: 72 hours of treatment, clinically relevant doses; threshold set at 5% (DMSO control). Here is the method:
Left panels, Relative enrichment of the J/EGFP+subpopulation after 72 hours of treatment with a BRAF inhibitor (PLX4720), bortezomib (VEL), temozolomide (TMZ), or salinomycin (SAL) as determined by flow cytometry. The threshold (dotted line) for the J/EGFP+ subpopulation was set at 5% (DMSO control) based on JARID1B expression studies. Depicted box plots represent three independently performed experiments with flow cytometric determination of J/EGFP expression beyond the indicated threshold. Right panels, The number of viable cells within the total population was decreasing during drug treatment.
Flow Cytometry and Fluorescence Activated Cell Sorting. For detection of JARID1B promoter-driven EGFP signals, adherent cells were harvested with 0.05% trypsin and spheres were dissociated as described herein. Dead cells were excluded by staining for 7-AAD. After sorting, aliquots were microscopically checked and were cultured for a short-time to exclude disproportional enrichment of debris or apoptotic cells. Fluorescence-activated cell sorting was carried out using a CYTOMATION MOFLO cytometer (DakoCytomation). Flow cytometric detection of surface markers was done according to standard procedures. Briefly, cells were fixed in 4% paraformaldehyde (PFA) in PBS for 10 minutes and then were blocked with 1% BSA in PBS for 10 minutes at room temperature. Primary and secondary antibodies were incubated for 10 minutes at room temperature. Before and after antibody incubations, cells were washed three times with 1% BSA in PBS. Samples were analyzed using an EPICS XL instrument (Beckman-Coulter). Monoclonal antibodies were follows: anti-CD20 (APC-conjugated; BD PHARMINGEN), anti-CD133 (PE; Miltenyi Biotech), anti-p75/NGFR (APC; Miltenyi Biotech), and anti-MCAM (FITC; R&D Systems). Isotype-matched mouse APC- (BD PHARMINGEN), PE- (R&D Systems), or FITC-conjugated (R&D Systems) antibodies were used as controls. Flow cytometric isolation of side population cells was performed according to established methods (Goodell, et al. (1996) J. Exp. Med. 183:1797-1806). […]
Background: In flow cytometry, cells or beads pass a laser one at a time.

The test system of data set [3] is WM3734 melanomas. Nature of the data set: Bortezomib treatment of xenotransplanted WM3734 melanomas with JARID1B knockdown. In kind it is in vivo, NOD/LtSscidIL2Rγ^null mice. To be noted: 20 μg bortezomib intraperitoneally on days 20, 22, 25, 27; JARID1B knocked-down tumors vs sh scrambled control; p=0.024 (MANOVA). Here is the method:
Xenotransplanted WM3734 melanomas (mean tumor volume ˜200 mm^3) were treated with 20 μg bortezomib (dissolved in PBS and injected intraperitoneally) on days 20, 22, 25, and 27 after xenotransplantation.
Xenotransplantation Assays and Metastasis Model. To address continuous tumor maintenance in vivo, serial xenotransplantation assays with JARID1B knockdown vs. control cells were performed in NOD/LtSscidIL2Rγ^null mice. For every passage, 10^4 cells in MATRIGEL®/Tu2% at a 1:1 dilution were injected subcutaneously in mice (5 mice per sample). One passage included: injection, tumor growth, tumor dissection, cell isolation (mechanical and collagenase I/IV treatment) and purification. Melanoma cell purification was done by three-day-puromycin treatment confirmed by MCAM flow cytometry. Verification of knockdown was carried out by QRT-PCR. […] Tumor growth was measured weekly using a caliper and was terminated when the first tumor of the series reached 1000 mm^3. Metastatic progression was measured in a spontaneous metastasis model. […] Formalin-fixed, paraffin-embedded (FFPE) sections of whole lungs were H&E-stained and the numbers of macro- and micrometastases were microscopically determined (20× magnification). Two representative frontal sections per lung were analyzed. […]

Turning to “sh JARID1B—58: shRNA clone from Sigma targeting the 3′UTR of JARID1B, SEQ ID NO:15 (CCGGCCCACCAATTTGGAAGGCATTCTCGAGAATGCCTTCCAAATTGGTGGGTTTTT)”, the knockdown phenotype result in data set [1] is reported as “significant knockdown phenotypes”.

With “JARID1B—62: shRNA clone from Sigma targeting the coding sequence of JARID1B, SEQ ID NO:14 (CCGGCGAGATGGAATTAACAGTCTTCTCGAGAAGACTGTTAATTCCATCTCGTTTTT)”, the knockdown phenotype entry in data set [1] is given as “significant knockdown phenotypes”. Turning to `CC[C@@H](C(=O)[C@@H](C)[C@@H](O)[C@H](C)[C@@H]1O[C@@H]([C@@H](CC)C(=O)O)CC[C@@H]1C)[C@H]1O[C@]2(C=C[C@@H](O)[C@]3(CC[C@@](C)([C@H]4CC[C@](O)(CC)[C@H](C)O4)O3)O2)[C@H](C)C[C@@H]1C` [salinomycin], in data set [2], the “relative enrichment for the J/EGFP+ subpopulation” value was “relative enrichment for the J/EGFP+ subpopulation”. The same measure, in the same setting: in the case of `CCCS(=O)(=O)Nc1ccc(F)c(C(=O)c2c[nH]c3ncc(Cl)cc23)c1F` [PLX7420] it was “relative enrichment for the J/EGFP+ subpopulation”.

Take `CC(C)C[C@H](NC(=O)[C@H](Cc1ccccc1)NC(=O)c1cnccn1)B(O)O` [bortezomib]: the “relative enrichment for the J/EGFP+ subpopulation” value in data set [2] is given as “relative enrichment for the J/EGFP+ subpopulation”. Also, the tumor volume entry in data set [3] is listed as “significantly lower tumor volume”.
